Read-outs that look alike come from different tables or passages of the source.

Data set [1] can be described thus: in vitro skin permeability test in pig. The format is in vitro ADME, Yucatan miniature pig.
Assay in data set [2]: not given
The source holds these as a separate data set.

For `CC(=N)N1CC[C@H](Oc2ccc([C@H](Cc3ccc4ccc(C(=N)N)cc4c3)C(=O)O)cc2)C1.Cl.O.O.O.O.O` [compound A, (2S)-2-[4-[((3S)-1-acetimidoyl-3-pyrrolidinyl)oxy]phenyl]-3-(7-amidino-2-naphthyl)propionic acid hydrochloride pentahydrate], the “Q48 (cumulative skin permeation amount of compound A per unit area for 48 hours)” value (human skin (2): horny, epidermal, dermal and some fat layers, approximately 1 mm, freeze-stored, thawed, fat removed, donor: compound A 50 mg/mL with enhancer, mean ± S.E., n=2 or 3) was “(2) 3 ± 1 µg/cm^2”. Besides, the “Percutaneous absorption enhancing effect” value (human skin (2), ratio of Q48 of compound A with enhancer to that without enhancer (3 ± 1)) is 1.0; the “Percutaneous absorption enhancing effect” value in data set [1] came out at 1.0; the “Percutaneous absorption enhancing effect” value in data set [2] amounted to 1.0. For the same compound, the “Q24 (cumulative skin permeation amount of compound A per unit area for 24 hours)” value in data set [2] is 709.05 ± 76.18 µg/cm^2.
